In ChEMBL document CHEMBL4507277:

Experiments:
[1] = biological target: Cyclin-dependent kinase 5 (Homo sapiens) (UniProt Q00535); details: Compound concentration 1000.0 nM
[2] = biological target: Casein kinase II subunit alpha' (Homo sapiens) (UniProt P19784); details: Compound concentration 1000.0 nM
[3] = system: Mast/stem cell growth factor receptor Kit (Homo sapiens), P10721 [V559D]; details: Compound concentration 1000.0 nM
[4] = biological target: Receptor-type tyrosine-protein kinase FLT3 (Homo sapiens) (UniProt P36888); details: Compound concentration 1000.0 nM
[5] = biological target: Mitogen-activated protein kinase 11 (Homo sapiens) (UniProt Q15759); details: Compound concentration 1000.0 nM
[6] = biological target: TGF-beta receptor type-1 (Homo sapiens) (UniProt P36897); details: Compound concentration 1000.0 nM
[7] = biological target: cGMP-dependent protein kinase 2 (Homo sapiens) (UniProt Q13237); details: Compound concentration 1000.0 nM
Chain of cGMP-dependent protein kinase 2 (Homo sapiens) (Q13237 whole entry): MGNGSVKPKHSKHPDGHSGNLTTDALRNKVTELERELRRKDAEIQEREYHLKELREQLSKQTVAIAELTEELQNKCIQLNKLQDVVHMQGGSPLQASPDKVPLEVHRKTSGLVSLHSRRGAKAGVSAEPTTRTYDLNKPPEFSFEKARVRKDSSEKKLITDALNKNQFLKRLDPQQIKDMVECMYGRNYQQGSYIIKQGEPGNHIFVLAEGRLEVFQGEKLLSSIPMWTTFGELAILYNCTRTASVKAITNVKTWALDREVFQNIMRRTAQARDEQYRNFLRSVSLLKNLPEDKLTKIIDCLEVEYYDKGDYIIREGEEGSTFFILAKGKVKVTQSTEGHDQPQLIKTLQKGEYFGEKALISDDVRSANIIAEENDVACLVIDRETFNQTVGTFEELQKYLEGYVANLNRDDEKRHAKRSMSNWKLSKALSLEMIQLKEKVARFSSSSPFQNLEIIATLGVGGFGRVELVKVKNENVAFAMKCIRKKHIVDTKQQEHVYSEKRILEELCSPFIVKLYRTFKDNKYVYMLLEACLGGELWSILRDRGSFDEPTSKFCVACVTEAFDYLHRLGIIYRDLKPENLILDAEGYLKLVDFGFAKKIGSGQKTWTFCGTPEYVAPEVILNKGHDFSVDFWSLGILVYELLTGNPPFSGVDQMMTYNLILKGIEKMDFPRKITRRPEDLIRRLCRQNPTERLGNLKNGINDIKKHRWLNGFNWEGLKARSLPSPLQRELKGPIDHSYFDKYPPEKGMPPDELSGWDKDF

[8] = biological target: Ribosomal protein S6 kinase alpha-2 (Homo sapiens) (UniProt Q15349); details: Compound concentration 1000.0 nM
[9] = biological target: Cyclin-dependent kinase 4 (Homo sapiens) (UniProt P11802); details: Compound concentration 1000.0 nM
[10] = biological target: Ephrin type-B receptor 3 (Homo sapiens) (UniProt P54753); details: Compound concentration 1000.0 nM
Chain of Ephrin type-B receptor 3 (Homo sapiens) (P54753 whole entry): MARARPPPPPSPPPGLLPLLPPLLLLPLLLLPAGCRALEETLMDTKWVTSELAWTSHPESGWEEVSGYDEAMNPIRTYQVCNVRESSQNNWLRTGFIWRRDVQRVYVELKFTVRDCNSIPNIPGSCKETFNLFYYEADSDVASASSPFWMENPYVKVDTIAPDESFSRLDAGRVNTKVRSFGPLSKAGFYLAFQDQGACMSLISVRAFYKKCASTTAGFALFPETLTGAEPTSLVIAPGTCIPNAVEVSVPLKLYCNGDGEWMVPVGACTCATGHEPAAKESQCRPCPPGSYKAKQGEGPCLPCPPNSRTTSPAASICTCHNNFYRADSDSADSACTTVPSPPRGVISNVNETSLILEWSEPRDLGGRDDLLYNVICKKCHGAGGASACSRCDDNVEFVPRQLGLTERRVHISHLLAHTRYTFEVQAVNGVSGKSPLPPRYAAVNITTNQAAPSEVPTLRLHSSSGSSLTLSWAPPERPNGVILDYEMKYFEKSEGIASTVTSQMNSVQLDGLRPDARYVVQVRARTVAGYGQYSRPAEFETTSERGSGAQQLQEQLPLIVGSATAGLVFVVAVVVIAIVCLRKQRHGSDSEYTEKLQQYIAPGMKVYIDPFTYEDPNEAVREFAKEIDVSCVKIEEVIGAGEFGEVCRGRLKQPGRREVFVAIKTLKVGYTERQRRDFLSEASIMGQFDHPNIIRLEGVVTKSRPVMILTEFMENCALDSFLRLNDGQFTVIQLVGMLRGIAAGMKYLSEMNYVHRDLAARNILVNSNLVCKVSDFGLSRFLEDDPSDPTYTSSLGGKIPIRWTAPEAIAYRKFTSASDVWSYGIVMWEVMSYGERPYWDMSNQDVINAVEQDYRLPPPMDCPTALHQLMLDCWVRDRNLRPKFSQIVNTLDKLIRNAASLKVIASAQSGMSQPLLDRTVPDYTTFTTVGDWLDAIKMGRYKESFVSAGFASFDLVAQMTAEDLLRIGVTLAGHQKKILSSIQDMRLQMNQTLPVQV

[11] = biological target: Dual serine/threonine and tyrosine protein kinase (Homo sapiens) (UniProt Q6XUX3); details: Compound concentration 1000.0 nM
[12] = biological target: Tyrosine-protein kinase JAK3 (Homo sapiens) (UniProt P52333); details: Compound concentration 1000.0 nM
[13] = biological target: Serine/threonine-protein kinase PAK 5 (Homo sapiens) (UniProt Q9P286); details: Compound concentration 1000.0 nM
[14] = biological target: Ephrin type-A receptor 5 (Homo sapiens) (UniProt P54756); details: Compound concentration 1000.0 nM
[15] = biological target: RAC-beta serine/threonine-protein kinase (Homo sapiens) (UniProt P31751); details: Compound concentration 1000.0 nM
Chain of RAC-beta serine/threonine-protein kinase (Homo sapiens) (P31751 whole entry): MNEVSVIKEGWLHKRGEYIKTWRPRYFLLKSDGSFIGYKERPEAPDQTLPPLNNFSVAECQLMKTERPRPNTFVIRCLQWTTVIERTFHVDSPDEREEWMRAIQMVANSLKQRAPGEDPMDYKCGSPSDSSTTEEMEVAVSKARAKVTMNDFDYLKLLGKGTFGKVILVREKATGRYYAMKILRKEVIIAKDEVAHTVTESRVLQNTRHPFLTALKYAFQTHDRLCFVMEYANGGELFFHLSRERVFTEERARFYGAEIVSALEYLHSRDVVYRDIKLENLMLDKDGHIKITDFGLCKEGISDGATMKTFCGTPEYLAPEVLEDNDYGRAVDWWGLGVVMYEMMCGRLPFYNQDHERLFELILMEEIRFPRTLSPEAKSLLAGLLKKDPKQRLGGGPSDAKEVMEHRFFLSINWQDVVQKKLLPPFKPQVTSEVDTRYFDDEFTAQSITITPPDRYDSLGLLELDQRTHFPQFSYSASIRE

[16] = biological target: Tyrosine-protein kinase ZAP-70 (Homo sapiens) (UniProt P43403); details: Compound concentration 1000.0 nM
[17] = biological target: Serine/threonine-protein kinase SBK1 (Homo sapiens) (UniProt Q52WX2); details: Compound concentration 1000.0 nM
Chain of Serine/threonine-protein kinase SBK1 (Homo sapiens) (Q52WX2 whole entry): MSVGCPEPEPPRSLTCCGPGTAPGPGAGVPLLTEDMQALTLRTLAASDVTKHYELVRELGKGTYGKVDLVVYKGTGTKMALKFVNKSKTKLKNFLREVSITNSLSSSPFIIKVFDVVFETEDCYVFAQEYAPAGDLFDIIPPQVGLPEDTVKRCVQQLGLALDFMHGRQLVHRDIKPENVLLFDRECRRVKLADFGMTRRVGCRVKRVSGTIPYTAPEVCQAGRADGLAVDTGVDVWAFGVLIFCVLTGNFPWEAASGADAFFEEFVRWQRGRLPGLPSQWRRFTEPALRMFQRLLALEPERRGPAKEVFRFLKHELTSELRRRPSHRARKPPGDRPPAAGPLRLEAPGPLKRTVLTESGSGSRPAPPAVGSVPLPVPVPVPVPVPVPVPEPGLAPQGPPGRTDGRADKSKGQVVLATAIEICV

[18] = system: Receptor-type tyrosine-protein kinase FLT3 (Homo sapiens), P36888 [D835H]; details: Compound concentration 1000.0 nM
[19] = system: Tyrosine-protein kinase ABL1 (Homo sapiens), P00519 [Q252H]; details: Compound concentration 1000.0 nM
[20] = biological target: Insulin receptor (Homo sapiens) (UniProt P06213); details: Compound concentration 1000.0 nM
[21] = biological target: Tyrosine-protein kinase Fgr (Homo sapiens) (UniProt P09769); details: Compound concentration 1000.0 nM
[22] = biological target: Mitogen-activated protein kinase 7 (Homo sapiens) (UniProt Q13164); details: Compound concentration 1000.0 nM
[23] = biological target: Mitogen-activated protein kinase 1 (Homo sapiens) (UniProt P28482); details: Compound concentration 1000.0 nM
Chain of Mitogen-activated protein kinase 1 (Homo sapiens) (P28482 whole entry, the tested form may be a part): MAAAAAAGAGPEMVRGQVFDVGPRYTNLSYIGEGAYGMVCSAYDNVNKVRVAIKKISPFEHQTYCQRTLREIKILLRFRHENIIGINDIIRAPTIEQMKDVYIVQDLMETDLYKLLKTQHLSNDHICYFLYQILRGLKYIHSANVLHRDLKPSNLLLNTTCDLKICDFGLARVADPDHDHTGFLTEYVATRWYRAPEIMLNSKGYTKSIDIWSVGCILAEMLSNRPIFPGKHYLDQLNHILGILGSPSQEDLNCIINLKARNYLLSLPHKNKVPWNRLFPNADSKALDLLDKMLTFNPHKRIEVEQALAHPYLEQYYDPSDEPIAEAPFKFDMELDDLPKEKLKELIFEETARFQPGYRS

[24] = biological target: Phosphatidylinositol 4-phosphate 3-kinase C2 domain-containing subunit beta (Homo sapiens) (UniProt O00750); details: Compound concentration 1000.0 nM
[25] = system: Proto-oncogene tyrosine-protein kinase receptor Ret (Homo sapiens), P07949 [M918T]; details: Compound concentration 1000.0 nM
[26] = biological target: Serine/threonine-protein kinase LATS1 (Homo sapiens) (UniProt O95835); details: Compound concentration 1000.0 nM
[27] = biological target: Serine/threonine-protein kinase WNK3 (Homo sapiens) (UniProt Q9BYP7); details: Compound concentration 1000.0 nM
[28] = biological target: Non-receptor tyrosine-protein kinase TYK2 (Homo sapiens) (UniProt P29597); details: Compound concentration 1000.0 nM
[29] = biological target: Tyrosine-protein kinase CSK (Homo sapiens) (UniProt P41240); details: Compound concentration 1000.0 nM
Chain of Tyrosine-protein kinase CSK (Homo sapiens) (P41240 2-450 limits assumed): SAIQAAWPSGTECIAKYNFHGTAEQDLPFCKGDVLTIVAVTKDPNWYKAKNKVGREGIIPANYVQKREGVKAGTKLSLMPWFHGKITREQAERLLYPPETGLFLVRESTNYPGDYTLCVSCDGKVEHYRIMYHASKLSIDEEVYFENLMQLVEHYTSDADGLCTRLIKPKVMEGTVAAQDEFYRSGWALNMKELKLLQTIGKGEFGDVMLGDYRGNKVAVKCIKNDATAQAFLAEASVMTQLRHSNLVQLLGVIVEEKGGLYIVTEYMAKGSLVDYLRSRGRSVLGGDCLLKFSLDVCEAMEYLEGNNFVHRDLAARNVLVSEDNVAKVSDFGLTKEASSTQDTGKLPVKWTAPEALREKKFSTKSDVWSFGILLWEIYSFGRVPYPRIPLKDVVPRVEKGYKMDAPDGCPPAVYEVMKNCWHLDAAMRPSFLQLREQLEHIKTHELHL

[30] = biological target: Myotonin-protein kinase (Homo sapiens) (UniProt Q09013); details: Compound concentration 1000.0 nM
[31] = biological target: Serine/threonine-protein kinase 4 (Homo sapiens) (UniProt Q13043); details: Compound concentration 1000.0 nM
[32] = biological target: Ribosomal protein S6 kinase alpha-5 (Homo sapiens) (UniProt O75582); details: Compound concentration 1000.0 nM
[33] = system: Proto-oncogene tyrosine-protein kinase receptor Ret (Homo sapiens), P07949 [V804L]; details: Compound concentration 1000.0 nM
[34] = biological target: Mitogen-activated protein kinase 4 (Homo sapiens) (UniProt P31152); details: Compound concentration 1000.0 nM
[35] = biological target: Dual specificity protein kinase CLK1 (Homo sapiens) (UniProt P49759); details: Compound concentration 1000.0 nM
Chain of Dual specificity protein kinase CLK1 (Homo sapiens) (P49759 whole entry, looked up): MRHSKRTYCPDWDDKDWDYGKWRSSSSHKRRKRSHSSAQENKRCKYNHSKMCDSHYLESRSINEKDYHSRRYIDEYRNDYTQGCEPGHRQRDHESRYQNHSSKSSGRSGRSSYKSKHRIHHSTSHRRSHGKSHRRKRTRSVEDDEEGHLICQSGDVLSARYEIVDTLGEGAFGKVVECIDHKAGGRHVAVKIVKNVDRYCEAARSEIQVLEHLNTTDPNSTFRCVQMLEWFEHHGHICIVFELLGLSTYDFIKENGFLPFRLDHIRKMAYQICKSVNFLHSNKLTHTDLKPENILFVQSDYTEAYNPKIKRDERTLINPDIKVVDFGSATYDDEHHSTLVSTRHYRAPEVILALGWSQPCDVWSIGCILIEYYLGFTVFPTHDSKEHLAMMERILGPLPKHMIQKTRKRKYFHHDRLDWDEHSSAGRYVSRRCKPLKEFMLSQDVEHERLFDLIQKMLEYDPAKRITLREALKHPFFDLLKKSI

[36] = biological target: Protein-tyrosine kinase 6 (Homo sapiens) (UniProt Q13882); details: Compound concentration 1000.0 nM
[37] = biological target: Serine/threonine-protein kinase 3 (Homo sapiens) (UniProt Q13188); details: Compound concentration 1000.0 nM
Chain of Serine/threonine-protein kinase 3 (Homo sapiens) (Q13188 whole entry): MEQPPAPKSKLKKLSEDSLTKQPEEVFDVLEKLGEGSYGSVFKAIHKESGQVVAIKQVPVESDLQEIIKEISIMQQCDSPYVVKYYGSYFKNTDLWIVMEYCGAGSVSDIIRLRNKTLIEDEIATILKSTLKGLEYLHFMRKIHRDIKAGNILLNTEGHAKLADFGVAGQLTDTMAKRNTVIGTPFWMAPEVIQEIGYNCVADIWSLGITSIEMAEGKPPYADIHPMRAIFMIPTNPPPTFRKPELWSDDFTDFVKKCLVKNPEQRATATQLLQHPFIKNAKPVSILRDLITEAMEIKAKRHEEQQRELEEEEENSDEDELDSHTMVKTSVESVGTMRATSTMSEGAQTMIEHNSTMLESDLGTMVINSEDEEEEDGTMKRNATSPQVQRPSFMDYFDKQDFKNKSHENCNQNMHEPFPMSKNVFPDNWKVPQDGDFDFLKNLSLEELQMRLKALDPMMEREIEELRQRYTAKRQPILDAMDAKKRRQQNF

[38] = biological target: Rho-associated protein kinase 1 (Homo sapiens) (UniProt Q13464); details: Compound concentration 1000.0 nM
[39] = biological target: MAP/microtubule affinity-regulating kinase 3 (Homo sapiens) (UniProt P27448); details: Compound concentration 1000.0 nM
[40] = biological target: Calcium/calmodulin-dependent protein kinase type IV (Homo sapiens) (UniProt Q16566); details: Compound concentration 1000.0 nM
Chain of Calcium/calmodulin-dependent protein kinase type IV (Homo sapiens) (Q16566 whole entry): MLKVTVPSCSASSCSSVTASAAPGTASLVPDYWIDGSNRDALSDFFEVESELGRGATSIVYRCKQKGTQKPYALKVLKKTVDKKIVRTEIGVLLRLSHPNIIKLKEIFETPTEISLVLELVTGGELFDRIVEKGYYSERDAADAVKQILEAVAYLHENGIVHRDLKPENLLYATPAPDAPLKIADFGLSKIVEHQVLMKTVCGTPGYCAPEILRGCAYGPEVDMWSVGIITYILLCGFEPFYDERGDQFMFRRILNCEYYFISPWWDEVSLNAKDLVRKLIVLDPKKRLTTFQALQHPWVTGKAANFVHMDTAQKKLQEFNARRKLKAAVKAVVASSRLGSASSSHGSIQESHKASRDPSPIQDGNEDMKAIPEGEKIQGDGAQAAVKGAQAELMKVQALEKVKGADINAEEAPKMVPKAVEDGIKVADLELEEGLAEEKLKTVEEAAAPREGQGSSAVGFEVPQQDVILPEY

[41] = biological target: Insulin receptor-related protein (Homo sapiens) (UniProt P14616); details: Compound concentration 1000.0 nM
[42] = biological target: Histamine H4 receptor (Homo sapiens) (UniProt Q9H3N8); details: Compound concentration 10.0 uM
[43] = biological target: Microtubule-associated serine/threonine-protein kinase 1 (Homo sapiens) (UniProt Q9Y2H9); details: Compound concentration 1000.0 nM
[44] = biological target: Serine/threonine-protein kinase ULK3 (Homo sapiens) (UniProt Q6PHR2); details: Compound concentration 1000.0 nM
[45] = biological target: Testis-specific serine/threonine-protein kinase 3 (Homo sapiens) (UniProt Q96PN8); details: Compound concentration 1000.0 nM

CCS(=O)(=O)c1cc2cc(C[C@](O)(CC(C)(C)c3ccc(F)cc3C(N)=O)C(F)(F)F)[nH]c2cn1
inactive: residual activity [1] 100% | residual activity [2] 92% | residual activity [3] 100% | residual activity [4] 85% | residual activity [5] 100% | residual activity [6] 100% | residual activity [7] 85% | residual activity [8] 100% | residual activity [9] 96% | residual activity [10] 100% | residual activity [11] 86% | residual activity [12] 72% | residual activity [13] 100% | residual activity [14] 100% | residual activity [15] 94% | residual activity [16] 71% | residual activity [17] 87% | residual activity [18] 100% | residual activity [19] 100% | residual activity [20] 94% | residual activity [21] 100% | residual activity [22] 97% | residual activity [23] 100% | residual activity [24] 89% | residual activity [25] 100% | residual activity [26] 98% | residual activity [27] 100% | residual activity [28] 93% | residual activity [29] 100% | residual activity [30] 99% | residual activity [31] 100% | residual activity [32] 100% | residual activity [33] 100% | residual activity [34] 100% | residual activity [35] 99% | residual activity [36] 100% | residual activity [37] 97% | residual activity [38] 84% | residual activity [39] 100% | residual activity [40] 100% | residual activity [41] 100% | inhibition [42] 3.88% | residual activity [43] 100% | residual activity [44] 100% | residual activity [45] 100%

CCS(=O)(=O)c1cc2cc(C[C@@](O)(CC(C)(C)c3ccc(F)cc3C(N)=O)C(F)(F)F)[nH]c2cn1
inactive: residual activity [1] 100% | residual activity [2] 83% | residual activity [3] 100% | residual activity [4] 100% | residual activity [5] 100% | residual activity [6] 100% | residual activity [7] 86% | residual activity [8] 80% | residual activity [9] 97% | residual activity [10] 92% | residual activity [11] 100% | residual activity [12] 76% | residual activity [13] 100% | residual activity [14] 100% | residual activity [15] 93% | residual activity [16] 72% | residual activity [17] 94% | residual activity [18] 100% | residual activity [19] 79% | residual activity [20] 86% | residual activity [21] 88% | residual activity [22] 81% | residual activity [23] 94% | residual activity [24] 86% | residual activity [25] 98% | residual activity [26] 77% | residual activity [27] 100% | residual activity [28] 83% | residual activity [29] 82% | residual activity [30] 85% | residual activity [31] 100% | residual activity [32] 69% | residual activity [33] 96% | residual activity [34] 84% | residual activity [35] 100% | residual activity [36] 97% | residual activity [37] 100% | residual activity [38] 69% | residual activity [39] 100% | residual activity [40] 100% | residual activity [41] 64% | inhibition [42] 2.05% | residual activity [43] 100% | residual activity [44] 98% | residual activity [45] 96%
